Experimental data taken from patent publication US7048917B1, “Fat-binding polymers” (Genzyme Corporation, priority 1998, dated 2006).

Test system: Sprague Dawly rats
Assay: Fat-Binding Evaluation via Paper Staining
Type: in vivo
Conditions: male rats, chow diet with 15 percent lard; lipase inhibitor (Orlistat) 0.04 percent by weight, no polymer; average of 24 experiments
Method: The model consists of male, Sprague Dawly rats, 160 g, housed individually in wire mesh cages. They were acclimated to the facility for six days, during which time they were fed a chow based diet supplemented with 15 percent lard by weight. Feed and water were provided ad libitum. The animals were then randomly assigned to groups of four and fed test diets for three days. The test diet was also a chow based feed. A lipase inhibitor (Orlistat) was added at 0.04 percent by weight and the polymer was added at 0.30 percent by weight. They were mixed in the feed as a powder followed by the addition of the supplemented fat in the form of lard at 15 percent by weight. During the final 24 hours of the treatment period an 8.5″×11″ sheet of white paper was placed beneath each cage. One inch squares were drawn on the paper creating a grid of 80 squares. When oil in the form of unabsorbed dietary triglyceride seeps from the stool, it stains the paper. This can be readily discerned from urine if the papers were allowed to dry for six hours. The oil stains confer translucence to the paper. The squares that contain these oil stains were counted and expressed as a percentage of total area stained.

CCCCCCCCCCC[C@@H](C[C@@H]1OC(=O)[C@H]1CCCCCC)OC(=O)[C@H](CC(C)C)NC=O [Control 2, Orlistat]
Percentage of Paper Stained: 39 ± 6%
